Earlier results in US20070020642A1, “Structural interaction fingerprint” (priority 2003, published 2007).

Biological target: p38 (Homo sapiens, UniProt Q16539)
Details: result in words, known from the literature

Chain of p38 (Q16539 whole entry): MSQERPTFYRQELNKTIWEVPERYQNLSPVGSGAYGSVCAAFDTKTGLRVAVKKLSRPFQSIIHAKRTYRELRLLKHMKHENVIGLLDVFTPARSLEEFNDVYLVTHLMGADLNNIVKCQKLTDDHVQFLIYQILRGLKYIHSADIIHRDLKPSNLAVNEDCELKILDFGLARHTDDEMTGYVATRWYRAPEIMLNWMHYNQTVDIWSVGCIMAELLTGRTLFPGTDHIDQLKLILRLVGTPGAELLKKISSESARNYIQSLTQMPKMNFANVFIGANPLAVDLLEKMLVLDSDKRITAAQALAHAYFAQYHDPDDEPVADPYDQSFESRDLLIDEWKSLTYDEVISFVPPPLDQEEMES

SMILES | p38 inhibition activity
O=C(C(=C1SCS1)c1ccncc1)c1ccc(OC(F)(F)F)cc1 [Cmp-59076, 2-[1,3]Dithietan-2-pyridin-4-yl-1-(4-trifluoromethoxy-phenyl)-ethanone] | no p38 inhibition activity
Fc1ccc(-c2nc3n(c2-c2ccncc2)CCS3)cc1 [SKF-86002] | potent p38 inhibitors
